These results are taken from patent US20040071768A1, “Compositions and methods for treating cancer” (Inex Pharmaceuticals Corporation, priority 1999, published 2004).

The test system of data set [1] is DLD-1 colon xenografts. Particulars: positive control. The procedure:
Female NCr nude mice were injected intravenously (q7dx3) via the lateral tail vein on days indicated by an asterisk (*). […] Irinotecan (⋄) was prepared in saline and injected iv (q4dx3) at a dose of 90 mg/kg/dose. Drug-to-lipid ratio was 0.3/1 (w/w). Data points represent median tumor volume (n=6).
(§1) The anti-tumor activity of multiple (q7d3) dose schedules of liposomal vinorelbine was evaluated in several human xenograft tumor models. The goal of this series of studies was to identify the benefits of encapsulation by evaluating a series of doses and determining the therapeutic index in several xenograft models. Models were selected based on the following criteria: (1) activity in the single dose studies, (2) a comprehensive literature review of vinca alkaloid efficacy, (3) a desire to include at least 2-3 models that represent the clinical use of vinorelbine, and (4) a desire to include models with a range of sensitivity to vinorelbine so that improvements resulting from the use of the liposome formulation might be identified. Based on these criteria, MX-1 and MDA-MB-435 breast models, the NCl-H460 NSCLC model and the HT-29 and DLD-1 colon models were chosen.
(§2) Therapeutic index (TI) is a parameter that quantifies the “safety factor” of a particular therapy. TI is a ratio of a toxicity parameter and a biological activity parameter. Therefore, a higher ratio represents a greater potential margin of safety. For these studies, TI is defined as follows: […]
(§3) The minimal effective dose (MED) was set according to NCl activity criteria as the dose resulting in an optimal % T/C of 40. This information was derived from Table 7.

For data set [2] the following is noted: adults, cited from earlier work.
The subject of data set [3] is MDA-MB-435 breast xenografts. Particulars: positive control. The procedure:
Female NCr nude mice were injected intravenously (q7dx3, beginning day 15) via the lateral tail vein. […] Paclitaxel (⋄) was prepared in […]/12.5% ethanol/75% saline and injected iv (q1dx5) at a dose of 15 mg/kg/dose. Drug-to-lipid ratio was 0.3/1 (w/w). Data points represent median tumor volume (n=6).
as §1, §2, §3

For data set [4], the system named is NCl H460 non small cell lung xenografts. Briefly: Multiple dose (q7dx3) anti-tumor activity, NCl H460 non small cell lung xenograft. Particulars: positive control. The procedure:
Female NCr nude mice were injected intravenously (q7dx3, beginning day 7) via the lateral tail vein. […] Mitomycin C (⋄) was prepared in saline and injected iv (q4dx3) at a dose of 3 mg/kg/dose. Drug-to-lipid ratio was 0.3/1 (w/w). Data points represent median tumor volume (n=6).
as §1, §2, §3

For the compound `CCc1c2c(nc3ccc(OC(=O)N4CCC(N5CCCCC5)CC4)cc13)-c1cc3c(c(=O)n1C2)COC(=O)[C@]3(O)CC` [Irinotecan], in data set [1] (90 mg/kg/dose iv q4dx3), the “% T/C (optimal % T/C following final treatment)” value turned out to be 11%; the “DRD (drug related deaths, n = 6)” value turned out to be 0; the “NCI Score” value is reported as 1; the “T-C (tumor growth delay to 1000 mm^3)” value came to 17.2. The “TF (tumor free animals at the end of study)” value in data set [1] (90 mg/kg/dose iv q4dx3, n=6) is 0.
As to `CC[C@]1(O)C[C@H]2CN(CCc3c([nH]c4ccccc34)[C@@](C(=O)OC)(c3cc4c(cc3OC)N(C=O)[C@H]3[C@@](O)(C(=O)OC)[C@H](OC(C)=O)[C@]5(CC)C=CCN6CC[C@]43[C@@H]65)C2)C1` [free vincristine, 22-oxovincaleukoblastine], the “total dose at which peripheral neuropathic effects usually begin” value in data set [2] (2-3 doses) is on record as 5 to 6 mg. Further, the “cumulative dose after which peripheral neuropathic effects are generally significant” value in data set [2] (8-10 doses) was 15 to 20 mg.
Take `CC(=O)O[C@H]1C(=O)[C@@]2(C)[C@H]([C@H](OC(=O)c3ccccc3)[C@]3(O)C[C@H](OC(=O)[C@H](O)[C@@H](NC(=O)c4ccccc4)c4ccccc4)C(C)=C1C3(C)C)[C@]1(OC(C)=O)CO[C@@H]1C[C@@H]2O` [Paclitaxel]: in data set [3] (15 mg/kg/dose iv q1dx5), the “% T/C (optimal % T/C following final treatment)” value is listed as −55%, the “NCI Score” value came out at 3 and the “T-C (tumor growth delay to 1000 mm^3)” value was found to be 36.9. In data set [3] (15 mg/kg/dose iv q1dx5, n=6), the “TF (tumor free animals at the end of study)” value is reported as 0.
Turning to `CO[C@@]12[C@H](COC(N)=O)C3=C(C(=O)C(C)=C(N)C3=O)N1C[C@@H]1N[C@@H]12` [Mitomycin C], in data set [4] (3 mg/kg/dose iv q4dx3), the “% T/C (optimal % T/C following final treatment)” value stood at 5%; the “DRD (drug related deaths, n = 6)” value worked out at 0; the “NCI Score” value turned out to be 1; the “T-C (tumor growth delay to 1000 mm^3)” value is 22.2. The “TF (tumor free animals at the end of study)” value in data set [4] (3 mg/kg/dose iv q4dx3, n=6) was 0.
